These results are taken from patent publication US20240350497A1, “COMBINATION THERAPY FOR THE TREATMENT OF PAN-KRAS MUTATED CANCERS” (Tiziana Life Sciences PLC, priority 2021, published 2024).

For data set [1], the system named is cell lines harboring KRAS mutations. Nature of the data set: sensitivity of KRAS mutant cell lines to CDK inhibitor in vitro. The data set is classed as cell-based. The source says:
(§1) FIG. 7A and FIG. 7B are plots showing dose-response curves of colorectal non-isogenic cells containing either wild type (WT) or mutated KRAS in response to CDK inhibitors AT7519 (FIG. 7A) or dinaciclib (FIG. 7B). The cyclin-dependent kinase, CDK1, is a synthetic lethal target for KRAS mutant tumors. KRAS mutant cells show increased activity of CDK1 (FIGS. 6A-6D). The inhibition of CDK1 causes a reduction in the S-phase of the cell cycle progression decreasing cell proliferation in KRAS mutant cells. This decreased cell cycle activity is observed by the modulation of Rb, a master control of the G1/S checkpoint. Through a series of experiments, including using parallel siRNA screens in KRAS mutant and wild type colorectal isogenic tumor cells and subsequently validated in a genetically diverse panel of 26 colorectal and pancreatic tumor cell models, the KRAS/CDK1 interaction has a synthetic lethal effect on cancer cells.

The subject of data set [2] is HCT-116 human colon carcinoma. Nature of the data set: milciclib in combination with irinotecan, HCT-116 human colon carcinoma xenograft model. The settings on record: for animal deaths: single agents at the tested doses. The method, then:
(§2) The efficacy of milciclib was tested in several human xenografts implanted in the hind flank region of athymic mice (FIG. 18). Models in nude mice included A2780 ovarian cancer, DU-145 prostatic cancer, BX-PC3 pancreatic cancer, A549 non-small cell lung cancer, MDA-MB-231 breast cancer, MIA-PACA-2 pancreatic cancer, A375 melanoma, CAPAN-1 pancreatic cancer, and HCT-116 colon cancer. The MIA-PACA-2 and CAPAN-1 pancreatic cancer cell lines both express KRAS mutants. The MIA-PACA-2 and CAPAN-1 cell lines tested with milciclib harbor the KRAS mutants, G12C and G12V, respectively. […] The HCT-116 colon cancer cell line expresses the G13D KRAS mutant, making up of 15.5% of CRC KRAS mutants Following implantation, tumors were allowed to establish to a size of 100 mm3 prior to oral administration of milciclib. In all these experiments, a daily bid treatment was administered for a maximum of 10 days.
Topoisomerase enzymes control the manipulation of the structure of DNA necessary for replication.
(In general: In xenograft studies the graft and the host belong to different species.)

The subject of data set [3] is N-592 human small cell carcinoma. Conditions: for animal deaths: single agents at the tested doses.
Method: Milciclib was tested orally at the doses of 20 and 30 mg/kg twice a day for 17 consecutive days.
Data set [4] deals with HCT-116 human colon carcinoma. Nature of the data set: milciclib in combination with 5-FU, HCT-116 human colon carcinoma xenograft. Conditions: for animal deaths: single agents at the tested doses. As for the experimental part:
as §2
Activity of milciclib has been tested in combination with 5-FU on HCT-116 human colon carcinoma cells (FIG. 10A). The HCT-116 cell line expresses the KRAS G13D mutant.

The test system of data set [5] is BX-PC3 human pancreatic carcinoma. Nature of the data set: milciclib in combination with gemcitabine, BX-PC3 human pancreatic carcinoma, first experiment. Conditions: for animal deaths: single agents at the tested doses. The method, then: A combination therapy of milciclib and the DNA damaging agent, gemcitabine, was treated on BX-PC3 human pancreatic carcinoma (FIG. 12A).

Data set [6] relates to MIA-PACA-2 pancreatic cancer (KRAS G12C). Nature of the data set: human xenograft efficacy, MIA-PACA-2. The data set is classed as in vivo, athymic mice. Conditions: oral, daily bid treatment for a maximum of 10 days.
Data set [7] relates to KRAS G12D LA2 pulmonary cancerous lesions. Nature of the data set: transgenic mouse model KRAS G12D LA2, MRI. Conditions: in vivo. The method, then:
Milciclib was tested in a transgenic mouse model KRAS G12D LA2 that develops pulmonary cancerous lesions reminiscent of human lung adenocarcinomas. Milciclib was tested to follow longitudinal disease progression and evaluate therapeutic efficacy by using magnetic resonance imaging (MRI) and positron emission tomography (PET). […] The MRI methodology used in this study allow longitudinal monitoring of tumor development and response in a single animal, and furthermore, allows for more clinically relevant study design and increases its statistical relevance.

Data set [8] has as its system A2780 human ovarian carcinoma. The experiment in a line: A2780 human ovarian carcinoma xenografts, oral milciclib. The data set is classed as in vivo, mice. As for the experimental part:
Pathogenic KRAS mutations were present in 606 patients of 7,325 epithelial ovarian cancers from the Caris Database, about 8.3% of the total. The frequency of KRAS mutation by subtype occurred in the following: 36.4% G12D, 35.8% G12V, and 8.4% G12C. A dose-dependent inhibition of tumor growth was measured in mice harboring A2780 human ovarian carcinoma xenografts administered with daily oral administration of milciclib.

For data set [9], the system named is CAPAN-1 pancreatic cancer (KRAS G12V). Nature of the data set: human xenograft efficacy, CAPAN-1. The class given is in vivo, athymic mice. The settings on record: oral, daily bid treatment for a maximum of 10 days.
In data set [10] the test system is BX-PC3 human pancreatic carcinoma. Nature of the data set: milciclib in combination with gemcitabine, BX-PC3 human pancreatic carcinoma, second experiment. Conditions: for animal deaths: single agents at the tested doses. As for the experimental part: A second experiment was conducted of milciclib in combination with gemcitabine on BX-PC3 human pancreatic carcinoma (FIG. 12B and FIG. 12C).

In data set [11] the test system is MDA-MB-231 cells. The experiment in a line: MDA-MB-231 cells exposed to milciclib and DNA damaging agent, alone or in combination. The data set is classed as cell-based, human. Conditions: TNBC cells. The method, then:
The use of milciclib in combination with five chemotherapeutic drugs already in use was tested for the treatment of TNBC including paclitaxel, doxorubicin, 5-FU, cisplatin, and cyclophosphamide. Potential synergistic effects with milciclib by exposing MDA-MB-231 cells to serial dilutions of milciclib and each DNA damaging agent, alone or in combination, in clinically relevant concentrations (FIG. 16A). […] Tumor proliferation was reduced by nearly 5 times for the combination treatment of milciclib and cisplatin compared to the vehicle treated group, assessed by Ki67 staining.

Data set [12] concerns advanced solid malignancies. The settings on record: oral, phase I; cited from earlier work.
The test system of data set [13] is MDA-MB-231 human breast cancer. As for the experimental part:
FIG. 15A is a series of plots showing change in tumor volume in mice bearing MDA-MB-231 human breast cancer tumor xenografts following treatment with 40 mg/kg milciclib (PHA-848125) (n=8) or vehicle control (5% glucose solution) (n=8) via oral gavage twice daily on a 5-days-on/2-days-off schedule for four weeks. FIG. 15B is a series of images and a chart showing immunohistochemistry staining of Ki67 and mitotic nucleus counts, and corresponding quantification in tumor tissue collected 48 hours after the last treatment with milciclib (PHA-848125) or vehicle control for 3 weeks.

Data set [14] deals with KRAS mutant tumor xenografts. Nature of the data set: KRAS mutant tumor xenografts treated with CDK inhibitor in vivo. On the set-up: species or system mice.
Source text: FIG. 8A is a plot showing the change in tumor volume of KRAS mutant tumor xenografts in mice treated with vehicle control (DMSO) or the CDK inhibitor AZD5438.
FIG. 8B is a plot showing the percent survival of mice harboring KRAS mutant tumor xenografts following treatment with either vehicle control (DMSO) or the CDK inhibitor AZD5438. FIG. 8C is a chart showing the tumor weight in mice harboring KRAS mutant tumor xenografts following treatment with either vehicle control (DMSO) or the CDK inhibitor AZD5438. FIG. 8D is a series of images showing tumor shrinkage in mice harboring KRAS mutant tumor xenografts following treatment with the CDK inhibitor AZD5438.
as §1, with “The” for “FIG. 7A and FIG. 7B are plots showing dose-response curves of colorectal non-isogenic cells containing either wild type (WT) or mutated KRAS in response to CDK inhibitors AT7519 (FIG. 7A) or dinaciclib (FIG. 7B). The”

For data set [15], the system named is NSCLC. The settings on record: single agent, Phase II studies; cited from earlier work.
[16] abbreviates: milciclib 20 mg/kg orally twice a day for 9 consecutive days.
Where [17] appears, read: milciclib 40 mg/kg orally twice a day for 9 consecutive days.

Where two headings read alike, the source gives them in different places.

On to `O=C(NC1CCNCC1)c1[nH]ncc1NC(=O)c1c(Cl)cccc1Cl` [AT519], for which the “sensitivity of KRAS mutant versus wild type cells” value in data set [1] was “increased sensitivity”.

Take `CCc1c2c(nc3ccc(OC(=O)N4CCC(N5CCCCC5)CC4)cc13)-c1cc3c(c(=O)n1C2)COC(=O)[C@]3(O)CC` [irinotecan, reference compound]: the TGI in data set [2] (irinotecan 45 mg/kg IV q4dx3) is 84%. Also, the animal deaths entry in data set [2] is recorded as “No animal died”.

Consider `CC[C@@]1(O)C(=O)OCc2c1cc1n(c2=O)Cc2cc3c(CN(C)C)c(O)ccc3nc2-1` [topotecan, reference compound], for which the animal deaths result in data set [3] is listed as “No animal died”. In addition, the TGI in data set [3] (topotecan 6 mg/kg IV q4dx5) is reported as 71%.

With `O=c1[nH]cc(F)c(=O)[nH]1` [Compound 5-FU, 5-fluorouracil, reference compound], the TGI in [4] (5-FU 50 mg/kg IV q7dx2) is given as 33%. For the same compound, the animal deaths result in data set [4] was “No animal died”.

As for `CNC(=O)c1nn(C)c2c1C(C)(C)Cc1cnc(Nc3ccc(N4CCN(C)CC4)cc3)nc1-2` [milciclib, N,1,4,4-tetramethyl-8-((4-(4-methylpiperazin-1-yl)phenyl)amino)-4,5-dihydro-1H-pyrazolo[4,3-h]quinazoline-3-carboxamide], the TGI in [5] (setting [16]) worked out at 61%; in [5] (setting [17]) it was 79%; in data set [3] (milciclib 20 mg/kg orally twice a day for 17 consecutive days), 34%; in [3] (milciclib 30 mg/kg orally twice a day for 17 consecutive days), 56%; in data set [4] (milciclib 20 mg/kg orally twice a day for 12 days), 42%; in data set [4] (milciclib 30 mg/kg orally twice a day for 12 days) it was 64%. The TGI is 74% in data set [10] (setting [16]); 80% in data set [10] (milciclib 20 mg/kg twice a day for 15 days); 88% in [10] (setting [17]); 38% in [2] (milciclib 20 mg/Kg orally twice a day for 9 days); 60% in data set [2] (milciclib 30 mg/Kg orally twice a day for 9 days). Besides, the animal deaths result in data set [5], in [3], in data set [4], in data set [10] and in data set [2] was “No animal died” throughout. The maximal inhibition in [6] came to 70%; in data set [9], 65%. Further, the “tumor growth inhibition at the end of treatment, measured by MRI” value in [7] is given as “significant tumor growth inhibition”. For the same compound, the entries for the “tumor growth inhibition (TGI)” value in data set [8] (20 mg/kg bid), in data set [8] (30 mg/kg bid) and in data set [8] (40 mg/kg bid) were 53%, 76% and 91%, respectively. In [11], the “interaction with cisplatin, cisplatin-induced apoptosis” value is reported as “acts synergistically”. Besides, in data set [12], the RP2D is listed as 150 mg/day. For the same compound, the tolerability entry in [12] is reported as “well-tolerated”; in [13] (mouse, in vivo) it was “well tolerated”. For the same compound, in data set [13] (40 mg/kg oral gavage twice daily, 5-days-on/2-days-off), the tumor growth result is recorded as “arrests tumor growth”.

Regarding `Cc1ncc(-c2ccnc(Nc3ccc(S(C)(=O)=O)cc3)n2)n1C(C)C` [AZD5438], the “sensitivity of KRAS mutant tumors” value in data set [14] was “increased sensitivity”.

With `Nc1ccn([C@@H]2O[C@H](CO)[C@@H](O)C2(F)F)c(=O)n1` [gemcitabine, reference compound], the TGI in data set [5] (gemcitabine 80 mg/kg IV) was 61%; in data set [10] (gemcitabine 80 mg/kg IV q4dx3), 70%; in data set [10] (gemcitabine 80 mg/kg IV q7dx3), 62%. Besides, the animal deaths entry in data set [5] and in data set [10] was “No animal died” each time. In addition, in data set [15], the median survival was 9 months. In addition, in data set [15], the objective response rate is 20-25%.
